How the values were obtained:
canine TRPM8 = canine TRPM8 (Canis lupus familiaris, UniProt Q1A7N1); assay: In vitro canine TRPM8 functional assay (icilin-induced intracellular Ca2+ increase, FLIPR/FDSS); format: cell-based; conditions: 0.2 μM compound; icilin response in HEK293 cells stably expressing canine TRPM8
Procedure: The functional activity of representative compounds of the formula (I) of the present invention was quantified by measuring changes in intracellular calcium concentration using a Ca^2+-sensitive fluorescent dye. The changes in fluorescent signal were monitored by a fluorescence plate reader, either a FLIPR™ (Molecular Devices) or FDSS (Hamamatsu).
HEK293 cells stably expressing canine TRPM8 were routinely grown as monolayers in Dulbecco's minimum essential medium supplemented with 10% FBS, 2 mM L-glutamine, 100 units/mL penicillin, 100 ug/mL streptomycin and 400 μg/mL G418. Cells were maintained in 5% CO2 at 37° C. […] Cells were treated with compounds of the formula (I) at varying concentrations and intracellular Ca^2+ was measured for 5 min prior to the addition of icilin to each well to achieve a final concentration that produces an approximately 80% maximal response.
Maximal fluorescence intensity (FI) achieved upon addition of icilin was exported from the FLIPR™ or FDSS software and further analyzed using GraphPad Prism 3.02 (Graph Pad Software Inc., CA, U.S.A.). […] Finally, the EC50 and IC50 values were calculated with the best-fit curve determined by GraphPad Prism

TRPM8 channel = TRPM8 channel (Rattus norvegicus (Rat), UniProt Q8R455); assay: Inhibition of icilin-induced "wet-dog" shakes in rats; format: in vivo; conditions: 10 mg/kg p.o. in 10% HP-β-CD, icilin 3.0 mg/kg i.p.
Sequence of TRPM8 channel (Q8R455 whole entry): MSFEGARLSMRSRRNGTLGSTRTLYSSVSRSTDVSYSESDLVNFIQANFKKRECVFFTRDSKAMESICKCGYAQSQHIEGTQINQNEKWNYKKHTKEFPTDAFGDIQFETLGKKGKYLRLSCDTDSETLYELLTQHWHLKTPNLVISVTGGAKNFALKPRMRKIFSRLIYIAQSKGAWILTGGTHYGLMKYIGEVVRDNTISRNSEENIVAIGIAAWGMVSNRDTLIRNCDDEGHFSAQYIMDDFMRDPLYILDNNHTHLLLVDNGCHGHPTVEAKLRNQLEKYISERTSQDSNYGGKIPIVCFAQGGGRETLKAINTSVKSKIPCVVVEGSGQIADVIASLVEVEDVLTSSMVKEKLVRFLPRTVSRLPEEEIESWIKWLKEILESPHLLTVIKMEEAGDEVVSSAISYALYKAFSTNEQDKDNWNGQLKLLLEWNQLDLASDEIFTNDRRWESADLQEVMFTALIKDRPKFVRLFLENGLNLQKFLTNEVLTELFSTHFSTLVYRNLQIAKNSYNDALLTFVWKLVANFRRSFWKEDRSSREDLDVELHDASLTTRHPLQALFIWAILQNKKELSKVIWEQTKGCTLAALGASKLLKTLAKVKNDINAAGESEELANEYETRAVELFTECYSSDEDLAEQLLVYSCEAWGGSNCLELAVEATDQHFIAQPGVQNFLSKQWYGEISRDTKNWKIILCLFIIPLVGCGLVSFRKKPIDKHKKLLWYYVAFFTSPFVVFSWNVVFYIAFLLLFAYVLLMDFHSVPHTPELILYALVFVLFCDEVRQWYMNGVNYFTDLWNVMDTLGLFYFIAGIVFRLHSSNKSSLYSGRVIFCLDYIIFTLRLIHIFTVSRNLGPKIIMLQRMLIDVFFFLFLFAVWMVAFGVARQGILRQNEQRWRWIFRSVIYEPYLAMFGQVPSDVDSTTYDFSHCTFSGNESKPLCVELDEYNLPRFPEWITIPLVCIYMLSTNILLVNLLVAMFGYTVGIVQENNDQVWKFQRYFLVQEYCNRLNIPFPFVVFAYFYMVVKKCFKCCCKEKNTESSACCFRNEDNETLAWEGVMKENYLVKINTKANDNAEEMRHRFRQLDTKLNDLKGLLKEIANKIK
Procedure: Similar shaking or jumping behavior was also evident in mice, rabbits, cats, dogs and monkeys. In humans, icilin produced a sensation of coolness on contact with mucous membranes, cold prickling when 0.1 mg was dropped on the tongue and coldness in the mouth, pharynx and chest lasting 30-60 min when 5-10 mg was ingested orally (WEI, E. T., et al., “AG-3-5: a chemical producing sensations of cold”, J Pharm Pharmacol., 1983, pp 110-112, Vol. 35). The inhibition or reversal of icilin-induced shaking behaviors in rodents provides evidence for the engagement and functional blockade of the TRPM8 channel and thereby for the utility of TRPM8 antagonists in treating or preventing a disease or condition in a mammal in which the disease or condition is affected by the modulation of TRPM8 receptors.
Male Sprague Dawley rats (220-450 g, Charles River Labs, n=6-9/treatment) were used to evaluate the ability of test compounds to block icilin-induced “wet-dog” shakes (WDS). […] Icilin was then administered in 10% solutol/H2O, at 3.0 mg/kg, i.p., and spontaneous “wet-dog” shakes were counted 10 min following the icilin injection over a 10-min period.

Sequence of canine TRPM8 (Q1A7N1 1-1104): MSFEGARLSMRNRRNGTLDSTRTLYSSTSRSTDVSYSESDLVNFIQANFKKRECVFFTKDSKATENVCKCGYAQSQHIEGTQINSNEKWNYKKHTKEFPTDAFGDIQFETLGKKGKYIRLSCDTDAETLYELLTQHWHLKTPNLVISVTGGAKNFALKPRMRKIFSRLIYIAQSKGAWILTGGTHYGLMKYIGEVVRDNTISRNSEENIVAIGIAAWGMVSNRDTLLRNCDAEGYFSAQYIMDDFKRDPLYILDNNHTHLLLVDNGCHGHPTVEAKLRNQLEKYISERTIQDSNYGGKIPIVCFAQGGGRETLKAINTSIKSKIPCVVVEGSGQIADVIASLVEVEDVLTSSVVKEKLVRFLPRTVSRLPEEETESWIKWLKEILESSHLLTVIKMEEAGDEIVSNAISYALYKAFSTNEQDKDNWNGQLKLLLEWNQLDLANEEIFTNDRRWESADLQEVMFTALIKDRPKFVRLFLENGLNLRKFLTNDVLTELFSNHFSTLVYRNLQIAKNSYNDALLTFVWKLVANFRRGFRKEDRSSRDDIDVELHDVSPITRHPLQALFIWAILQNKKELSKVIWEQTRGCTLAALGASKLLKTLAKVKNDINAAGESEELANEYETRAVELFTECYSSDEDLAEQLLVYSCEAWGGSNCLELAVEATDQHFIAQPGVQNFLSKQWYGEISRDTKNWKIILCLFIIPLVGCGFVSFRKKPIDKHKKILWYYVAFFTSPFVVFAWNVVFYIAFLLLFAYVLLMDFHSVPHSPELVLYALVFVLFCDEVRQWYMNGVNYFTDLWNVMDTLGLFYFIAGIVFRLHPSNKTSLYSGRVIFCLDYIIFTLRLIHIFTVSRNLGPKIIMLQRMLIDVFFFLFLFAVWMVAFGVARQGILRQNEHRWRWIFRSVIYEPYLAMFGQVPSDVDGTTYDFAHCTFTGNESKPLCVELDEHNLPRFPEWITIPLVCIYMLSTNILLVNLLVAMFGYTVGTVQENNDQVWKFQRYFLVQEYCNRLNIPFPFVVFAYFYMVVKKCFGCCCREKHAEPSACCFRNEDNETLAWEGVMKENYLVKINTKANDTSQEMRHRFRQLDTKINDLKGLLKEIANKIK

SMILES	% Inh @ 0.2 μM (canine TRPM8)	Icilin % Inhibition @ 1.5 h, 10 mg/kg (TRPM8 channel)
Cn1nc(C(C)(C)C)c(Cl)c1-c1nc2nc(-c3ccccc3C(F)(F)F)cc(C(F)(F)F)c2[nH]1 [Compound 1]	99%	–
COc1nc(-c2ccccc2Cl)cc2nc(-c3c(C#N)c(C(C)(C)C)nn3C)[nH]c12.CS(=O)(=O)O [Compound 17, 3-tert-Butyl-5-[6-(2-chloro-phenyl)-4-methoxy-3H-imidazo[4,5-c]pyridine-2-yl]-1-methyl-1H-pyrazole-4-carbonitrile methanesulfonic acid salt]	–	38%
Cn1nc(C(C)(C)C)c(Cl)c1-c1nc2nc(-c3ccccc3Cl)cnc2[nH]1 [Compound 110]	99%	–
